Experimental data from patent publication US11952363B2, “Piperazine compounds for the treatment of autoimmune disease” (Hoffmann-La Roche Inc., priority 2018, dated 2024).

What was measured:
CYP2D6 = target: T1, CYP2D6 (Homo sapiens, UniProt P10635); assay: CYP inhibition assay in human liver microsome; assay type: in vitro ADME; conditions: liver microsomes, probe dextromethorphan, 10 μM compound, dextromethorphan substrate, percentage inhibition < 0: not or weak inhibitor, read-out: CYP 2D6 inhibition % @10 μM
T1 construct: tissue BD-Gentest 452117; host or cells: human liver microsomes
T1 sequence (P10635 whole entry): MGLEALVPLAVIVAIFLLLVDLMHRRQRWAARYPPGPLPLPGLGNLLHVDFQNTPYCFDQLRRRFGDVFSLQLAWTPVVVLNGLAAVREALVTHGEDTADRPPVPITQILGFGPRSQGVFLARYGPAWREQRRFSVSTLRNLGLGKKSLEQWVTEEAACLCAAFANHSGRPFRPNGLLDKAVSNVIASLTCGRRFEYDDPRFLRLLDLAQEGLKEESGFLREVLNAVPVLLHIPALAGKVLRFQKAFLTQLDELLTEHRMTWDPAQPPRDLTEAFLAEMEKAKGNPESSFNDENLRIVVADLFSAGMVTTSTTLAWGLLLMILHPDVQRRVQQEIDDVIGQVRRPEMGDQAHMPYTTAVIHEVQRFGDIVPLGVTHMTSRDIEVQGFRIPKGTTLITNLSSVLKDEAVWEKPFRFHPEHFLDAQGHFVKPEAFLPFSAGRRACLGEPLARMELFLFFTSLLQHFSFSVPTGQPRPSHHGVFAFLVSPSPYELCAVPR
Procedure: This is a high throughput screening assay used for assessment of reversible inhibition of CYP2D6 activity of test compounds in human liver microsome (HLM) in early discovery stage.
10 mM DMSO stock solutions of test compounds were diluted in DMSO to generate 2 mM intermediate stock solution. 250 nL of intermediate stock solution were transferred in duplicate into 3 separate 384 well microtitre plates (assay-ready plates). A mixture of HLM and each substrate was made up. 45 μL of HLM substrate mix was then transferred to each well of an assay ready plate and mixed. The negative (solvent) and positive control (standard inhibitor for CYP 2D6) were included in each assay ready plate. The assay ready plate was warmed to 37° C. in an incubator over 10 minutes. 5μL pre-warmed NADPH regenerating system was added to each incubation well to start the reaction. Final incubation volume was 50 μL. The assay plate then was placed back in the 37° C. incubator. After 10 minutes incubation, incubates were quenched by addition of 50 μL 100% acetonitrile containing internal standards (20 ng/mL D3-Dextrorphan). The supernatants were collected for RapidFire/MS/MS analysis.
RapidFire online solid phase extraction/sample injection system (Agilent) coupled with API4000 triple quadrupole mass spectrometer (AB Sciex) were used for sample analysis. The mobile phase composed of acetonitrile and water supplemented with 0.1% formic acid. A C4 solid phase extraction cartridge is used for sample separation. MS detection is achieved in positive ion MRM mode.
Peak areas for substrate, metabolite and internal standard are determined using the RapidFire integrator software (version 3.6.12009.12296). Peak area ratios (PAR) of metabolite and internal standard (stable-labelled metabolite) are then calculated. The measurement window for each experiment is then defined:
PAR (0% activity)=average PAR for all incubations containing concentrated inhibitor;
Par (100% activity)=average PAR for all incubations containing no inhibitor (DMSO controls);
% Activity (test inhibitor)
=[PAR(test inhibitor)-PAR(0% activity)]/[PAR(100% activity)-PAR(0% activity)];
% Inhibition (test inhibitor)=100-% Activity (test inhibitor).

human TLR9 = target: T2, human TLR9 (Homo sapiens, UniProt Q9NR96); assay: HEK293-Blue-hTLR-9 cells assay (SEAP reporter, ODN2006 stimulation); assay type: cell-based; conditions: HEK293-Blue-hTLR9 cells, ODN2006 ligand, 20 hrs incubation; read-out: HEK/hTLR9 IC50
T2 sequence (Q9NR96 26-1032): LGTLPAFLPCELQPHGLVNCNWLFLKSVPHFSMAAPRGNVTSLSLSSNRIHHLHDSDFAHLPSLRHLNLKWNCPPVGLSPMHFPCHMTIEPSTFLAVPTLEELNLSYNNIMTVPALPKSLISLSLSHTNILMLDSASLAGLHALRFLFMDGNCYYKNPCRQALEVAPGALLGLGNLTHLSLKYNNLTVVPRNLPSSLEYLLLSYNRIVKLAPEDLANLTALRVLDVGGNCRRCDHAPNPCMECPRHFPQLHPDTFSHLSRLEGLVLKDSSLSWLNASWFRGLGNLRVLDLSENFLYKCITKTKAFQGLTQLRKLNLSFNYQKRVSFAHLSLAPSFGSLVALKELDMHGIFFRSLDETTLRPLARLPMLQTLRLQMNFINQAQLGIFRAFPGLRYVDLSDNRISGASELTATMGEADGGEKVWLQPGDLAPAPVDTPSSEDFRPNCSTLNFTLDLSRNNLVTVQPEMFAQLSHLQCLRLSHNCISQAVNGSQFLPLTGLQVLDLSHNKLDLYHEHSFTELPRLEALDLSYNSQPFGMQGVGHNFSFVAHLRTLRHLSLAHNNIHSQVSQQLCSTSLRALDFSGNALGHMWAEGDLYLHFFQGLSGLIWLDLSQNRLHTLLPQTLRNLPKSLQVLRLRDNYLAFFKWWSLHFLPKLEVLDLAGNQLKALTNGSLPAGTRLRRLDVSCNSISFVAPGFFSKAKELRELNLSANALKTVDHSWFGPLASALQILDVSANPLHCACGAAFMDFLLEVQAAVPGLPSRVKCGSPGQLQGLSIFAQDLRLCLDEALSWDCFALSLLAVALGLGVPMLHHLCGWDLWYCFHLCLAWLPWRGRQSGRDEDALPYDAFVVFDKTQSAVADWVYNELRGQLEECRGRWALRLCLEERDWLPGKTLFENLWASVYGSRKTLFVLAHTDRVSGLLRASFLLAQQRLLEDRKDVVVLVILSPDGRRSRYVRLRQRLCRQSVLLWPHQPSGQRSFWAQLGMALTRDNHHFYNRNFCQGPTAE
Procedure: The following tests were carried out in order to determine the activity of the compounds of formula (I) in HEK293-Blue-hTLR-7/8/9 cells assay.
A stable HEK293-Blue-hTLR-9 cell line was purchased from InvivoGen (Cat.#: hkb-htlr9, San Diego, California, USA). These cells were originally designed for studying the stimulation of human TLR9 by monitoring the activation of NF-κB. A SEAP (secreted embryonic alkaline phosphatase) reporter gene was placed under the control of the IFN-β minimal promoter fused to five NF-κB and. AP-1-binding sites. The SEAP was induced by activating NF-κB and AP-1 via stimulating HEK-Blue hTLR9 cells with TLR9 ligands. Therefore the reporter expression was declined by TLR9 antagonist under the stimulation of a ligand, such as ODN2006 (Cat.#: tlr1-2006-1, Invivogen, San Diego, California, USA), for incubation of 20 his. The cell culture supernatant SEAP reporter activity was determined using QUANTI-Blue™ kit (Cat.#: rep-qb1, Invivogen, San Diego, California, USA) at a wavelength of 640 nm, a detection medium that turns purple or blue in the presence of alkaline phosphatase.
HEK293-Blue-hTLR9 cells were incubated at a density of 250,000-450,000 cells/mL in a volume of 170 μL in a 96-well plate in Dulbecco's Modified Eagle's medium (DMEM) containing 4.5 g/L glucose, 50 U/mL penicillin, […], […], 2 mM L-glutamine, 10% (v/v) heat-inactivated fetal bovine serum with addition of 20 μL test compound in a serial dilution in the presence of final DMSO at 1% and 10 p L of 20uM ODN2006 in above DMEM, perform incubation under 37° C. in a CO2 incubator for 20 hrs. Then 20 μL of the supernatant from each well was incubated with 180 μL Quanti-blue substrate solution at 37° C. for 2 h and the absorbance was read at 620˜655 nm using a spectrophotometer. The signaling pathway that TLR9 activation leads to downstream NF-κB activation has been widely accepted, and therefore similar reporter assay was modified for evaluating TLR9 antagonist.

inhibition at 10 min, 10 µM (CYP2D6) | IC50 (human TLR9) | SMILES
17% | 39 nM | C[C@@H]1CN(c2ccc(C#N)c3ncccc23)C[C@H](C)N1Cc1ccc(N2CCNCC2)cc1 [Example 1, 5-[(3R,5S)-3,5-Dimethyl-4-[(4-piperazin-1-ylphenyl)methyl]piperazin-1-yl]quinoline-8-carbonitrile]
2% | 75 nM | C[C@@H]1CN(c2ccc(C#N)c3ncccc23)C[C@H](C)N1CC(=O)N1Cc2ccc(N3CCNCC3)cc2C1 [Example 16, 5-[(3R,5S)-3,5-Dimethyl-4-[2-oxo-2-(5-piperazin-1-ylisoindolin-2-yl)ethyl]piperazin-1-yl]quinoline-8-carbonitrile]
